# In US20080021026A1, “BENZOTHIOPHENE INHIBITORS OF RHO KINASE” (priority 2006, published 2008):
# Molecular target: T1, recombinant N-terminal GST-tagged human Rho kinase 2 (ROCK2, amino acids 1-552) (Homo sapiens, UniProt O75116)
# T1 construct: ROCK2, amino acids 1-552; purchased Invitrogen Inc. PV3759
# Experiment: In vitro Rho kinase assay (luciferase-based ATP consumption), ROCK2
# Assay type: biochemical
# Conditions: recombinant GST-tagged human ROCK2, luciferase-based ATP consumption; read-out: ROCK2 IC50
# In short: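 GST-ROCK2 (aa 1-552, 0.82 μg/ml) with 100 μg/ml S6 peptide and 3 µM ATP in Tris pH 7.5 buffer with MgCl2/CaCl2/EGTA/BSA, compound added just after reaction start, 2 h at 30 °C. Remaining ATP read by luciferase luminescence. Efficacy expressed as percentage of H-1152P positive control.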
# T1 sequence (O75116 1-552): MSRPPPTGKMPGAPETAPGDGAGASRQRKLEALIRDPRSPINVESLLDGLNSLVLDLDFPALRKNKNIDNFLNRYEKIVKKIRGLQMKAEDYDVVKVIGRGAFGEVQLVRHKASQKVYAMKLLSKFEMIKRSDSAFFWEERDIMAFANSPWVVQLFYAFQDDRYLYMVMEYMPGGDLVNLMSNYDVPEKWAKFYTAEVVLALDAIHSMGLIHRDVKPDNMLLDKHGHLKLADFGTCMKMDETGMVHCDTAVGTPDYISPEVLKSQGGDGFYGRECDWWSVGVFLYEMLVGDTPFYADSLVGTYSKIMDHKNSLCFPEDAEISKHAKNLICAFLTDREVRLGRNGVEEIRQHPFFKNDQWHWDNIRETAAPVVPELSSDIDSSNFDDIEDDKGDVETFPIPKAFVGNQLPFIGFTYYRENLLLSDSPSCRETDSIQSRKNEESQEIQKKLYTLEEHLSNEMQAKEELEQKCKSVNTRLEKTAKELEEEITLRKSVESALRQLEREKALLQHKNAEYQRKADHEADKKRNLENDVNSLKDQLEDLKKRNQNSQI
row,Compound,IC50 [µM]
1,"Cc1c(-c2ccnc(N)n2)sc2ccc(C(=O)NC3CCCCC3)cc12 [Example 356, Cc1c(sc2ccc(cc12)C(═O)NC3CCCCC3)-c4ccnc(N)n4]",> 5
2,"Cc1c(-c2ccnc(N)n2)sc2ccc(C(=O)NCCCN(C)c3ccccc3)cc12 [Example 437, CN(CCCNC(═O)c1ccc2sc(c(C)c2c1)-c3ccnc(N)n3)c4ccccc4]",< 5
3,"Cc1c(-c2ccnc(N)n2)sc2ccc(C(=O)N3CCN(c4ccccc4)CC3)cc12 [Example 513, Cc1c(sc2ccc(cc12)C(═O)N3CCN(CC3)c4ccccc4)-c5ccnc(N)n5]",< 5
4,"Cc1c(-c2ccnc(N)n2)sc2ccc(C(=O)N3CCCC(c4ccc(C(F)(F)F)cc4)C3)cc12 (stereo not shown) [Example 571, Cc1c(sc2ccc(cc12)C(═O)N3CCCC(C3)c4ccc(cc4)C(F)(F)F)-c5ccnc(N)n5]",> 5
5,"Cc1c(-c2ccnc(N)n2)sc2ccc(C(=O)NCc3ccc(Cl)cc3)cc12 [Example 410, Cc1c(sc2ccc(cc12)C(═O)NCc3ccc(Cl)cc3)-c4ccnc(N)n4]",< 5
6,"Cc1ccccc1CNC(=O)c1ccc2sc(-c3ccnc(N)n3)c(C)c2c1 [Example 379, Cc1ccccc1CNC(═O)c2ccc3sc(c(C)c3c2)-c4ccnc(N)n4]",< 5
7,"CCOC(=O)N1CCN(C(=O)c2ccc3sc(-c4ccnc(N)n4)c(C)c3c2)CC1 [Example 511, CCOC(═O)N1CCN(CC1)C(═O)c2ccc3sc(c(C)c3c2)-c4ccnc(N)n4]",> 5
8,"Cc1c(-c2ccnc(N)n2)sc2ccc(C(=O)N3CCCC3CO)cc12 (stereo not shown) [Example 475, Cc1c(sc2ccc(cc12)C(═O)N3CCCC3CO)-c4ccnc(N)n4]",< 5
9,"COc1cccc(CNC(=O)c2ccc3sc(-c4ccnc(N)n4)c(C)c3c2)c1 [Example 404, COc1cccc(CNC(═O)c2ccc3sc(c(C)c3c2)-c4ccnc(N)n4)c1]",< 5
10,"Cc1ccc(N2CCN(C(=O)c3ccc4sc(-c5ccnc(N)n5)c(C)c4c3)CC2)c(C)c1 [Example 538, Cc1ccc(N2CCN(CC2)C(═O)c3ccc4sc(c(C)c4c3)-c5ccnc(N)n5)c(C)c1]",> 5
11,"CCN(C(=O)c1ccc2sc(-c3ccnc(N)n3)c(C)c2c1)C(Cc1ccccc1)c1ccco1 (stereo not shown) [Example 560, CCN(C(Cc1ccccc1)c2ccco2)C(═O)c3ccc4sc(c(C)c4c3)-c5ccnc(N)n5]",< 5
12,"Cc1c(-c2ccnc(N)n2)sc2ccc(C(=O)NCc3ccco3)cc12 [Example 355, Cc1c(sc2ccc(cc12)C(═O)NCc3ccco3)-c4ccnc(N)n4]",< 5
13,"CCCN(C)C(=O)c1ccc2sc(-c3ccnc(N)n3)c(C)c2c1 [Example 463, CCCN(C)C(═O)c1ccc2sc(c(C)c2c1)-c3ccnc(N)n3]",< 5
14,"Cc1c(-c2ccnc(N)n2)sc2ccc(C(=O)N3CCN(c4ccc([N+](=O)[O-])cc4)CC3)cc12 [Example 552, Cc1c(sc2ccc(cc12)C(═O)N3CCN(CC3)c4ccc(cc4)[N+]([O−])═O)-c5ccnc(N)n5]",< 5
15,"CCCCN(C)C(=O)c1ccc2sc(-c3ccnc(N)n3)c(C)c2c1 [Example 469, CCCCN(C)C(═O)c1ccc2sc(c(C)c2c1)-c3ccnc(N)n3]",< 5
16,"Cc1c(-c2ccnc(N)n2)sc2ccc(C(=O)NCCc3ccccc3F)cc12 [Example 406, Cc1c(sc2ccc(cc12)C(═O)NCCc3ccccc3F)-c4ccnc(N)n4]",< 5
17,"Cc1c(-c2ccnc(N)n2)sc2ccc(C(=O)NCCc3ccc(Cl)cc3)cc12 [Example 428, Cc1c(sc2ccc(cc12)C(═O)NCCc3ccc(Cl)cc3)-c4ccnc(N)n4]",< 5
18,"Cc1cccc(N2CCN(C(=O)c3ccc4sc(-c5ccnc(N)n5)c(C)c4c3)CC2)c1C [Example 534, Cc1cccc(N2CCN(CC2)C(═O)c3ccc4sc(c(C)c4c3)-c5ccnc(N)n5)c1C]",> 5
19,"Cc1c(-c2ccnc(N)n2)sc2ccc(C(=O)NC3CC(C)(C)NC(C)(C)C3)cc12 [Example 430, Cc1c(sc2ccc(cc12)C(═O)NC3CC(C)(C)NC(C)(C)C3)-c4ccnc(N)n4]",< 5
20,"Cc1c(-c2ccnc(N)n2)sc2ccc(C(=O)N(C)CCC#N)cc12 [Example 465, CN(CCC#N)C(═O)c1ccc2sc(c(C)c2c1)-c3ccnc(N)n3]",< 5
21,"Cc1c(-c2ccnc(N)n2)sc2ccc(C(=O)NCCc3ccccc3)cc12 [Example 378, Cc1c(sc2ccc(cc12)C(═O)NCCc3ccccc3)-c4ccnc(N)n4]",< 5
22,"Cc1c(-c2ccnc(N)n2)sc2ccc(C(=O)N3CCN(Cc4ccc5c(c4)OCO5)CC3)cc12 [Example 563, Cc1c(sc2ccc(cc12)C(═O)N3CCN(CC3)Cc4ccc5OCOc5c4)-c6ccnc(N)n6]",< 5
23,"Cc1ccc(C)c(CNC(=O)c2ccc3sc(-c4ccnc(N)n4)c(C)c3c2)c1 [Example 393, Cc1ccc(C)c(CNC(═O)c2ccc3sc(c(C)c3c2)-c4ccnc(N)n4)c1]",< 5
24,"Cc1c(-c2ccnc(N)n2)sc2ccc(C(=O)N3CCCCC3C)cc12 (stereo not shown) [Example 472, CC1CCCCN1C(═O)c2ccc3sc(c(C)c3c2)-c4ccnc(N)n4]",< 5
25,"Cc1c(-c2ccnc(N)n2)sc2ccc(C(=O)N3CCC(Cc4ccccc4)CC3)cc12 [Example 520, Cc1c(sc2ccc(cc12)C(═O)N3CCC(CC3)Cc4ccccc4)-c5ccnc(N)n5]",> 5

row,Compound,IC50 [µM]
1,"CCC(C)CNC(=O)c1ccc2sc(-c3ccnc(N)n3)c(C)c2c1 (stereo not shown) [Example 348, CCC(C)CNC(═O)c1ccc2sc(c(C)c2c1)-c3ccnc(N)n3]",< 5
2,"COc1cc(CN(C)C(=O)c2ccc3sc(-c4ccnc(N)n4)c(C)c3c2)cc(OC)c1OC [Example 555, COc1cc(CN(C)C(═O)c2ccc3sc(c(C)c3c2)-c4ccnc(N)n4)cc(OC)c1OC]",> 5
3,"Cc1c(-c2ccnc(N)n2)sc2ccc(C(=O)N(Cc3cccnc3)Cc3cccnc3)cc12 [Example 547, Cc1c(sc2ccc(cc12)C(═O)N(Cc3cccnc3)Cc4cccnc4)-c5ccnc(N)n5]",< 5
4,"Cc1c(-c2ccnc(N)n2)sc2ccc(C(=O)NCc3ccc4c(c3)OCO4)cc12 [Example 420, Cc1c(sc2ccc(cc12)C(═O)NCc3ccc4OCOc4c3)-c5ccnc(N)n5]",< 5
5,"Cc1c(-c2ccnc(N)n2)sc2ccc(C(=O)NCCC3CCCN3C)cc12 (stereo not shown) [Example 386, CN1CCCC1CCNC(═O)c2ccc3sc(c(C)c3c2)-c4ccnc(N)n4]",< 5
6,"C=CCN(C(=O)c1ccc2sc(-c3ccnc(N)n3)c(C)c2c1)C1CCCCC1 [Example 503, Cc1c(sc2ccc(cc12)C(═O)N(CC═C)C3CCCCC3)-c4ccnc(N)n4]",< 5
7,"COc1cc2c(cc1OC)CN(C(=O)c1ccc3sc(-c4ccnc(N)n4)c(C)c3c1)CC2 [Example 564, COc1cc2CCN(Cc2cc1OC)C(═O)c3ccc4sc(c(C)c4c3)-c5ccnc(N)n5]",< 5
8,"Cc1c(-c2ccnc(N)n2)sc2ccc(C(=O)NCCCc3ccccc3)cc12 [Example 397, Cc1c(sc2ccc(cc12)C(═O)NCCCc3ccccc3)-c4ccnc(N)n4]",< 5
9,"CCCNC(=O)c1ccc2sc(-c3ccnc(N)n3)c(C)c2c1 [Example 335, CCCNC(═O)c1ccc2sc(c(C)c2c1)-c3ccnc(N)n3]",< 5
10,"Cc1c(-c2ccnc(N)n2)sc2ccc(C(=O)NCCCN3CCCC3=O)cc12 [Example 411, Cc1c(sc2ccc(cc12)C(═O)NCCCN3CCCC3═O)-c4ccnc(N)n4]",> 5
11,"Cc1c(-c2ccnc(N)n2)sc2ccc(C(=O)N3CCN(c4ccc(O)cc4)CC3)cc12 [Example 523, Cc1c(sc2ccc(cc12)C(═O)N3CCN(CC3)c4ccc(O)cc4)-c5ccnc(N)n5]",< 5
12,"Cc1c(-c2ccnc(N)n2)sc2ccc(C(=O)NCCN3CCOCC3)cc12 [Example 389, Cc1c(sc2ccc(cc12)C(═O)NCCN3CCOCC3)-c4ccnc(N)n4]",< 5
13,"Cc1c(-c2ccnc(N)n2)sc2ccc(C(=O)NC(C)CCc3ccccc3)cc12 (stereo not shown) [Example 418, CC(CCc1ccccc1)NC(═O)c2ccc3sc(c(C)c3c2)-c4ccnc(N)n4]",> 5
14,"COc1ccc(CCN(C)C(=O)c2ccc3sc(-c4ccnc(N)n4)c(C)c3c2)cc1OC [Example 543, COc1ccc(CCN(C)C(═O)c2ccc3sc(c(C)c3c2)-c4ccnc(N)n4)cc1OC]",> 5
15,"Cc1c(-c2ccnc(N)n2)sc2ccc(C(=O)NN3CCOCC3)cc12 [Example 361, Cc1c(sc2ccc(cc12)C(═O)NN3CCOCC3)-c4ccnc(N)n4]",< 5
16,"Cc1c(-c2ccnc(N)n2)sc2ccc(C(=O)N3CCN(c4ccc(F)cc4F)CC3)cc12 [Example 546, Cc1c(sc2ccc(cc12)C(═O)N3CCN(CC3)c4ccc(F)cc4F)-c5ccnc(N)n5]",> 5
17,"CCC(C)NC(=O)c1ccc2sc(-c3ccnc(N)n3)c(C)c2c1 (stereo not shown) [Example 341, CCC(C)NC(═O)c1ccc2sc(c(C)c2c1)-c3ccnc(N)n3]",< 5
18,"Cc1c(-c2ccnc(N)n2)sc2ccc(C(=O)NCC#N)cc12 [Example 332, Cc1c(sc2ccc(cc12)C(═O)NCC#N)-c3ccnc(N)n3]",< 5
19,"CCOC(=O)CC(C)NC(=O)c1ccc2sc(-c3ccnc(N)n3)c(C)c2c1 (stereo not shown) [Example 390, CCOC(═O)CC(C)NC(═O)c1ccc2sc(c(C)c2c1)-c3ccnc(N)n3]",< 5
20,"Cc1c(-c2ccnc(N)n2)sc2ccc(C(=O)NCCOc3ccccc3)cc12 [Example 401, Cc1c(sc2ccc(cc12)C(═O)NCCOc3ccccc3)-c4ccnc(N)n4]",< 5
21,"Cc1c(-c2ccnc(N)n2)sc2ccc(C(=O)N3CCC(C(N)=O)CC3)cc12 [Example 494, Cc1c(sc2ccc(cc12)C(═O)N3CCC(CC3)C(N)═O)-c4ccnc(N)n4]",> 5
22,"COCC(C)NC(=O)c1ccc2sc(-c3ccnc(N)n3)c(C)c2c1 (stereo not shown) [Example 352, COCC(C)NC(═O)c1ccc2sc(c(C)c2c1)-c3ccnc(N)n3]",> 5
23,"Cc1c(-c2ccnc(N)n2)sc2ccc(C(=O)N(CCCO)Cc3ccccn3)cc12 [Example 517, Cc1c(sc2ccc(cc12)C(═O)N(CCCO)Cc3ccccn3)-c4ccnc(N)n4]",< 5
24,"CCN(C(=O)c1ccc2sc(-c3ccnc(N)n3)c(C)c2c1)C(C)C [Example 468, CCN(C(C)C)C(═O)c1ccc2sc(c(C)c2c1)-c3ccnc(N)n3]",< 5
